Values joined by “and” are separate entries in the source; they are usually repeats but may differ in a detail not shown here. Equal entries are not always repeated. Inconclusive results and toxic doses are left out. Cut-off read from the data, not from the text of the source: active = T/C of 150% or more; inactive = T/C below 125%. Peptide text beside a SMILES is read from it. * marks the point of attachment. Cbz = O=C(OCc1ccccc1)*; Bn = c1ccc(C*)cc1
Tested on: L1210 leukemia ip in BDF1 mice, survival T/C
Assay: NCI In Vivo Anticancer Drug Screen. Data for tumor model L1210 Leukemia (intraperitoneal) in B6D2F1 (BDF1) mice
Conditions: endpoint: mean survival time, higher = longer survival
Method in brief: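 Mice bearing the transplanted tumor received compound or vehicle. Survival of the treated group was divided by that of the vehicle-treated control group to give the ratio.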

[1] = dose: 200.0 mg/kg/injection, schedule: Q01DX009 (ip), vehicle: Klucel (hydroxypropylcellulose) (HPC)
[2] = dose: 3.12 mg/kg/injection, schedule: Q01DX009 (ip), vehicle: Klucel (hydroxypropylcellulose) (HPC)
[3] = dose: 3.12 mg/kg/injection, schedule: Q04DX002 (ip), vehicle: Klucel (hydroxypropylcellulose) (HPC)
[4] = dose: 6.25 mg/kg/injection, schedule: Q04DX002 (ip), vehicle: Klucel (hydroxypropylcellulose) (HPC)
[5] = dose: 100.0 mg/kg/injection, schedule: Q01DX001 (ip), vehicle: saline
[6] = dose: 200.0 mg/kg/injection, schedule: Q01DX001 (ip), vehicle: saline
[7] = dose: 400.0 mg/kg/injection, schedule: Q01DX001 (ip), vehicle: saline
[8] = dose: 12.5 mg/kg/injection, schedule: Q04DX002 (ip), vehicle: Klucel (hydroxypropylcellulose) (HPC)

Measured: T/C

CC1C(=O)/C(=C/N(C)c2ccccc2)CC1C(=O)O (stereo unspecified)
inactive: dose: 100.0 mg/kg/injection, schedule: Q01DX001 (ip), vehicle: Klucel (hydroxypropylcellulose) (HPC) 93 % of control | dose: 100.0 mg/kg/injection, schedule: Q04DX003 (ip), vehicle: Klucel (hydroxypropylcellulose) (HPC) 100 % of control | dose: 200.0 mg/kg/injection, schedule: Q01DX001 (ip), vehicle: Klucel (hydroxypropylcellulose) (HPC) 93 % of control | [1] 97 % of control | dose: 200.0 mg/kg/injection, schedule: Q04DX003 (ip), vehicle: Klucel (hydroxypropylcellulose) (HPC) 98 % of control | dose: 400.0 mg/kg/injection, schedule: Q01DX001 (ip), vehicle: Klucel (hydroxypropylcellulose) (HPC) 87 % of control | dose: 400.0 mg/kg/injection, schedule: Q01DX009 (ip), vehicle: Klucel (hydroxypropylcellulose) (HPC) 97 % of control | dose: 400.0 mg/kg/injection, schedule: Q04DX003 (ip), vehicle: Klucel (hydroxypropylcellulose) (HPC) 98 % of control

O=C(Nc1cccc(C(F)(F)F)c1)c1ccc(F)cc1
inactive: dose: 100.0 mg/kg/injection, schedule: Q04DX002 (ip), vehicle: Klucel (hydroxypropylcellulose) (HPC) 91 % of control | dose: 200.0 mg/kg/injection, schedule: Q04DX002 (ip), vehicle: Klucel (hydroxypropylcellulose) (HPC) 102 % of control | dose: 400.0 mg/kg/injection, schedule: Q04DX002 (ip), vehicle: Klucel (hydroxypropylcellulose) (HPC) 88 % of control

CC(C)C[CH2][Pb]([CH2]CC(C)C)([CH2]CC(C)C)[O]C(=O)C(C)C
inactive: dose: 1.56 mg/kg/injection, schedule: Q01DX009 (ip), vehicle: Klucel (hydroxypropylcellulose) (HPC) 97 % of control | [2] 93 % of control | [3] 111 % of control | [4] 115 % of control

O=C(CSc1ccc([N+](=O)[O-])cc1)c1ccccc1
inactive: dose: 50.0 mg/kg/injection, schedule: Q01DX001 (ip), vehicle: saline 104 % of control | [5] 98 % of control | [6] 91 % of control | [7] 96 % of control

O=C(NC(CSCc1ccccc1)C(=O)NC(Cc1ccc(O)cc1)C(=O)O)OCc1ccccc1 (stereo unspecified) (Cbz-Cys(Bn)-Tyr-OH; configuration not given here)
inactive: dose: 100.0 mg/kg/injection, schedule: Q01DX009 (ip), vehicle: gum acacia 95 % of control | dose: 100.0 mg/kg/injection, schedule: Q04DX003 (ip), vehicle: gum acacia 103 % of control | dose: 200.0 mg/kg/injection, schedule: Q01DX009 (ip), vehicle: gum acacia 95 % of control | dose: 200.0 mg/kg/injection, schedule: Q04DX003 (ip), vehicle: gum acacia 103 % of control | dose: 400.0 mg/kg/injection, schedule: Q01DX009 (ip), vehicle: gum acacia 89 % of control | dose: 400.0 mg/kg/injection, schedule: Q04DX003 (ip), vehicle: gum acacia 92 % of control

CCO/C=C/C(=O)NC(=S)Nc1ccccc1
inactive: dose: 100.0 mg/kg/injection, schedule: Q01DX001 (ip), vehicle: saline with Tween-80 97 % of control | dose: 100.0 mg/kg/injection, schedule: Q01DX009 (ip), vehicle: saline with Tween-80 86 % of control | dose: 200.0 mg/kg/injection, schedule: Q01DX001 (ip), vehicle: saline with Tween-80 100 % of control | dose: 200.0 mg/kg/injection, schedule: Q01DX009 (ip), vehicle: saline with Tween-80 86 % of control | dose: 400.0 mg/kg/injection, schedule: Q01DX001 (ip), vehicle: saline with Tween-80 102 % of control

CNC(=N)c1ccc(NC(=N)c2ccc(NC(=N)c3ccc(NC(=O)c4ccc(C(=N)NC)cc4)cc3)cc2)cc1
inactive: dose: 3.75 mg/kg/injection, schedule: Q01DX015 (ip), vehicle: water 104 % of control | dose: 7.5 mg/kg/injection, schedule: Q01DX015 (ip), vehicle: water 101 % of control | dose: 15.0 mg/kg/injection, schedule: Q01DX015 (ip), vehicle: water 108 % of control | dose: 50.0 mg/kg/injection, schedule: Q01DX015 (ip), vehicle: water 97 % of control
active: dose: 20.0 mg/kg/injection, schedule: Q01DX Z (ip), vehicle: water 177 % of control | dose: 30.0 mg/kg/injection, schedule: Q01DX015 (ip), vehicle: water 176 % of control and 180 % of control

O=C1C(Cl)=CC(=NBr)C=C1Cl
inactive: [8] 88 % of control | dose: 25.0 mg/kg/injection, schedule: Q04DX002 (ip), vehicle: Klucel (hydroxypropylcellulose) (HPC) 92 % of control | dose: 50.0 mg/kg/injection, schedule: Q04DX002 (ip), vehicle: Klucel (hydroxypropylcellulose) (HPC) 98 % of control

CCCCCCCCCC=C(c1cccc2ccccc12)c1cccc2ccccc12
inactive: dose: 100.0 mg/kg/injection, schedule: Q01DX001 (ip), vehicle: other 93 % of control | dose: 200.0 mg/kg/injection, schedule: Q01DX001 (ip), vehicle: other 96 % of control | dose: 400.0 mg/kg/injection, schedule: Q01DX001 (ip), vehicle: other 102 % of control

NNC(=O)c1ccc(Cl)cc1Nc1ccc(F)cc1
inactive: dose: 25.0 mg/kg/injection, schedule: Q04DX003 (ip), vehicle: saline 94 % of control | dose: 50.0 mg/kg/injection, schedule: Q04DX003 (ip), vehicle: saline 100 % of control | dose: 100.0 mg/kg/injection, schedule: Q01DX001 (ip), vehicle: saline sonified 111 % of control

COc1ccccc1NC(=S)NCc1ccco1
inactive: dose: 100.0 mg/kg/injection, schedule: Q04DX002 (ip), vehicle: saline with Tween-80 89 % of control | dose: 200.0 mg/kg/injection, schedule: Q04DX002 (ip), vehicle: saline with Tween-80 89 % of control

CCC[N+](C)(C)CC[N+](C)(C)CCC
inactive: [5] 99 % of control | [6] 103 % of control | [7] 101 % of control

CC[n+]1cc(-c2ccc(NC(=O)/C=C\c3ccc(C(=O)Nc4ccc(-c5c[n+](CC)c(N)nc5N)cc4)cc3)cc2)c(N)nc1N
inactive: dose: 45.0 mg/kg/injection, schedule: Q01DX001 (ip), vehicle: saline 101 % of control | dose: 150.0 mg/kg/injection, schedule: Q01DX001 (ip), vehicle: saline 107 % of control | [6] 105 % of control | dose: 155.0 micrograms/kg/injection, schedule: Q01DX009 (ip), vehicle: saline 121 % of control
active: dose: 2.7 mg/kg/injection, schedule: Q01DX015 (ip), vehicle: saline 156 % of control | dose: 6.2 mg/kg/injection, schedule: Q01DX015 (ip), vehicle: saline 153 % of control | dose: 9.3 mg/kg/injection, schedule: Q01DX015 (ip), vehicle: saline 152 % of control | dose: 14.0 mg/kg/injection, schedule: Q01DX015 (ip), vehicle: saline 201 % of control | dose: 22.0 mg/kg/injection, schedule: Q01DX015 (ip), vehicle: saline 207 % of control | dose: 70.0 mg/kg/injection, schedule: Q01DX001 (ip), vehicle: saline 188 % of control | [5] 225 % of control and 248 % of control

CC(=O)O[C@@]1(C)[C@@H](C)C(=O)O[C@@H]2CCN3CC=C(COC(=O)[C@]1(C)O)[C@H]23
inactive: dose: 6.25 mg/kg/injection, schedule: Q01DX009 (ip), vehicle: other 97 % of control | dose: 12.5 mg/kg/injection, schedule: Q01DX009 (ip), vehicle: other 94 % of control | dose: 25.0 mg/kg/injection, schedule: Q01DX009 (ip), vehicle: other 120 % of control | dose: 25.0 mg/kg/injection, schedule: Q01DX009 (ip), vehicle: saline 114 % of control | dose: 50.0 mg/kg/injection, schedule: Q01DX009 (ip), vehicle: carboxymethylcellulose (CMC) 124 % of control | dose: 100.0 mg/kg/injection, schedule: Q01DX009 (ip), vehicle: carboxymethylcellulose (CMC) 118 % of control

ClC1(Cl)OC(Cl)(Cl)C(Cl)(Cl)OC1(Cl)Cl
inactive: dose: 50.0 mg/kg/injection, schedule: Q01DX009 (ip), vehicle: Klucel (hydroxypropylcellulose) (HPC) 98 % of control | dose: 100.0 mg/kg/injection, schedule: Q01DX009 (ip), vehicle: Klucel (hydroxypropylcellulose) (HPC) 98 % of control | [1] 102 % of control

CC[CH2][Pb]([CH2]CC)([CH2]CC)[O]C(=O)C(Cl)(Cl)Cl
inactive: [2] 108 % of control | [3] 105 % of control | dose: 6.25 mg/kg/injection, schedule: Q01DX009 (ip), vehicle: Klucel (hydroxypropylcellulose) (HPC) 93 % of control | [4] 93 % of control | dose: 12.5 mg/kg/injection, schedule: Q01DX009 (ip), vehicle: Klucel (hydroxypropylcellulose) (HPC) 101 % of control | [8] 97 % of control and 99 % of control

— PubChem BioAssay AID248 (DTP/NCI, 2004)
